Values after ≈ are worked out from the molar mass of the structure shown.
System: MRSA
Assay: Antibacterial activity of flavonoids on MRSA (agar plate dilution method, MIC)
Format: cell-based, Staphylococcus aureus
Details: MRSA 20 strains, flavonoid alone
Procedure: MRSA were employed as bacteria to be tested. The antibacterial activity was determined according to the agar plate dilution method defined by Japan Society of Chemotherapy (Chemotherapy 29(1), 76-79(1981)). The employed plate medium for the measurement of sensitivity was semisynthetic medium based on Mueller-Hinton Agar, and the bacteria solution for seeding was prepared by incubating the test bacterium in Mueller-Hinton Broth at 37° C. for 20 hours, followed by diluting in 0.85% saline to give 10^6 CFU/mL. The test samples were produced in two times-serial dilution method. To this plate medium for the measurement of sensitivity, was seeded a bacteria solution with a Micro Planter® (Sakuma Seisakusho). After incubating at 37° C. for 20 hours, a minimum inhibitory concentration (MIC) was determined. […] In addition, MIC50 indicates a concentration yielding the proliferation inhibitory effect in 50% of total number of MRSA strains, whilst MIC90 indicates a concentration yielding the proliferation inhibitory effect in 90% of total number of MRSA strains.

MIC50 [µg/mL] | MIC90 [µg/mL] | MIC range [µg/mL] | Compound
250 (≈ 822 µM) | 250 (≈ 822 µM) | 250 (≈ 822 µM) | O=C1c2ccc(O)cc2OC(c2cc(O)c(O)c(O)c2)C1O (stereo in doubt) [dihydrorobinetin]
125 (≈ 416 µM) | 125 (≈ 416 µM) | 15.6 to 125 | COc1ccc(-c2oc3cc(O)cc(O)c3c(=O)c2O)cc1 [kaempferid]

Compound | MIC50 [µg/mL] | MIC90 [µg/mL] | MIC range [µg/mL]
O=C1C[C@@H](c2ccc(O)cc2)Oc2cc(O)ccc21 [liquiritigenin] | 500 (≈ 1950 µM) | 500 (≈ 1950 µM) | 250 to 500

Same assay, conditions: Staphylococcus aureus, 20 h; MRSA 20 strains, flavonoid alone

Compound | MIC [µg/mL]
O=c1cc(-c2ccc(O)cc2)oc2cc(O)ccc12 [7,4′-dihydroxyflavone] | 125 to 500 (≈ 492 to 1970 µM)
O=C(/C=C/c1ccc(O)c(O)c1)c1ccc(O)cc1O [butein] | 125 to 250 (≈ 459 to 918 µM)
O=c1c(O)c(-c2cc(O)c(O)c(O)c2)oc2cc(O)cc(O)c12 [myricetin] | 250 to 500 (≈ 786 to 1570 µM)
Oc1ccc(-c2[o+]c3cc(O)cc(O)c3cc2O)cc1 [palagonidin] | 250
O=C(CCc1ccc(O)cc1)c1c(O)cc(O)cc1O [phloretin] | 125 to 250 (≈ 456 to 912 µM)

More lines, now with the values ahead:

MIC [µg/mL] | Compound
62.5 to 250 (≈ 246 to 983 µM) | O=c1cc(-c2ccc(O)c(O)c2)oc2ccccc12 [3′,4′-dihydroxyflavone]
31.3 to 125 (≈ 123 to 492 µM) | O=c1cc(-c2ccccc2)oc2c(O)c(O)ccc12 [7,8-dihydroxyflavone]
62.5 to 125 (≈ 218 to 437 µM) | O=c1c(O)c(-c2ccc(O)c(O)c2)oc2cc(O)ccc12 [fisetin]

Same assay, conditions: Staphylococcus aureus; MRSA 20 strains, flavonoid alone; read-out: MIC50

Compound | MIC50 [µg/mL]
O=c1cc(-c2ccc(O)cc2)oc2cc(O)ccc12 [7,4′-dihydroxyflavone] | 250 (≈ 983 µM)
O=C(/C=C/c1ccc(O)c(O)c1)c1ccc(O)cc1O [butein] | 250 (≈ 918 µM)
Oc1cc(O)c2cc(O)c(-c3ccc(O)c(O)c3)[o+]c2c1 [cyanidin] | 250
O=C1c2ccc(O)cc2O[C@H](c2ccc(O)c(O)c2)[C@H]1O [fustin] | 500 (≈ 1730 µM)
O=c1c(O)c(-c2cc(O)c(O)c(O)c2)oc2cc(O)cc(O)c12 [myricetin] | 500 (≈ 1570 µM)
Oc1ccc(-c2[o+]c3cc(O)cc(O)c3cc2O)cc1 [palagonidin] | 250
O=C(CCc1ccc(O)cc1)c1c(O)cc(O)cc1O [phloretin] | 250 (≈ 912 µM)

Continued, values first:

MIC50 [µg/mL] | Compound
125 (≈ 492 µM) | O=c1cc(-c2ccc(O)c(O)c2)oc2ccccc12 [3′,4′-dihydroxyflavone]
62.5 (≈ 246 µM) | O=c1cc(-c2ccccc2)oc2cc(O)c(O)cc12 [6,7-dihydroxyflavone]
62.5 (≈ 246 µM) | O=c1cc(-c2ccccc2)oc2c(O)c(O)ccc12 [7,8-dihydroxyflavone]
125 (≈ 437 µM) | O=c1c(O)c(-c2ccc(O)c(O)c2)oc2cc(O)ccc12 [fisetin]
62.5 (≈ 281 µM) | O=c1cc(-c2ccccc2)oc2ccccc12 [flavone]

Same assay, conditions: Staphylococcus aureus; MRSA 20 strains, flavonoid alone; read-out: MIC90

Compound | MIC90 [µg/mL]
O=c1cc(-c2ccc(O)cc2)oc2cc(O)ccc12 [7,4′-dihydroxyflavone] | 500 (≈ 1970 µM)
O=C(/C=C/c1ccc(O)c(O)c1)c1ccc(O)cc1O [butein] | 250 (≈ 918 µM)
Oc1cc(O)c2cc(O)c(-c3ccc(O)c(O)c3)[o+]c2c1 [cyanidin] | > 500
O=C1c2ccc(O)cc2O[C@H](c2ccc(O)c(O)c2)[C@H]1O [fustin] | 500 (≈ 1730 µM)
O=c1c(O)c(-c2cc(O)c(O)c(O)c2)oc2cc(O)cc(O)c12 [myricetin] | 500 (≈ 1570 µM)
Oc1ccc(-c2[o+]c3cc(O)cc(O)c3cc2O)cc1 [palagonidin] | 250
O=C(CCc1ccc(O)cc1)c1c(O)cc(O)cc1O [phloretin] | 250 (≈ 912 µM)

Continued, values first:

MIC90 [µg/mL] | Compound
250 (≈ 983 µM) | O=c1cc(-c2ccc(O)c(O)c2)oc2ccccc12 [3′,4′-dihydroxyflavone]
125 (≈ 492 µM) | O=c1cc(-c2ccccc2)oc2cc(O)c(O)cc12 [6,7-dihydroxyflavone]
125 (≈ 492 µM) | O=c1cc(-c2ccccc2)oc2c(O)c(O)ccc12 [7,8-dihydroxyflavone]
125 (≈ 437 µM) | O=c1c(O)c(-c2ccc(O)c(O)c2)oc2cc(O)ccc12 [fisetin]
125 (≈ 562 µM) | O=c1cc(-c2ccccc2)oc2ccccc12 [flavone]

Same assay, conditions: flavonoid alone

Compound | antibacterial activity on MRSA (in words)
O=c1cc(-c2ccc(O)c(O)c2)oc2ccccc12 [3′,4′-dihydroxyflavone] | potent antibacterial activity
O=c1cc(-c2ccccc2)oc2cc(O)c(O)cc12 [6,7-dihydroxyflavone] | potent antibacterial activity
O=c1cc(-c2ccccc2)oc2c(O)c(O)ccc12 [7,8-dihydroxyflavone] | potent antibacterial activity
O=c1c(O)c(-c2ccc(O)c(O)c2)oc2cc(O)ccc12 [fisetin] | potent antibacterial activity
COc1ccc(-c2oc3cc(O)cc(O)c3c(=O)c2O)cc1 [kaempferid] | potent antibacterial activity

System: not listed separately
Assay: Dissolution of rutin (auxiliary effects of L-arginine hydrochloride and L-cysteine); solubility in water
Format: physicochemical
Details: not given
Procedure: To the solution B, is added 3.5 mL of the solution A. After adjusting the pH of the mixture to 8.5 with HCl, the mixture is filtered to give an injectable.

solubility in water (in words) | Compound
insoluble in water | O=c1cc(-c2ccccc2)oc2ccccc12 [flavone]

— US20040229825A1, “Pharmaceutical composition for treatment of infection with drug resistant bacterium and disinfectant” (priority 2003, published 2004)
